From ChEMBL document CHEMBL1149487, “A structure-guided approach to an orthogonal estrogen-receptor-based gene switch activated by ligands suitable for in vivo studies” (J Med Chem, 2006) come the findings set out here.

Data set [1] has as its target T1, Estrogen receptor beta (Homo sapiens, UniProt Q92731).
Data set [2] has as its target T2, Estrogen receptor (Homo sapiens, UniProt P03372).
T2 sequence (P03372 whole entry): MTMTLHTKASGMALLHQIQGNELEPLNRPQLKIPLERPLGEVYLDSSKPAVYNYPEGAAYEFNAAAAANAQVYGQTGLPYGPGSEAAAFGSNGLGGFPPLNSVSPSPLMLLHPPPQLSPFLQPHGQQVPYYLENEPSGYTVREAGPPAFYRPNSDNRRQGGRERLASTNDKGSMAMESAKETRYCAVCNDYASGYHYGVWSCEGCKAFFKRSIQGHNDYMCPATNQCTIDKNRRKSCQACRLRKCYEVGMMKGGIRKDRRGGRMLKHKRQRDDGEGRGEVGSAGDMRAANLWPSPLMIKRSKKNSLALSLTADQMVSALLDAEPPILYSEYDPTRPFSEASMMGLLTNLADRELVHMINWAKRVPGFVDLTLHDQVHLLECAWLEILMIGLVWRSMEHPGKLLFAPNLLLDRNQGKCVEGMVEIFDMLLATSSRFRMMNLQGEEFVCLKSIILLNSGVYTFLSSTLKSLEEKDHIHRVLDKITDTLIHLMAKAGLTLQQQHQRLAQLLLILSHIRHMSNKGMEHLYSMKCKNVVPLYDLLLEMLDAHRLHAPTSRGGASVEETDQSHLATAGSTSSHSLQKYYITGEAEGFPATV
Description: Binding affinity to human ER alpha

In data set [3] the target is Estrogen receptor (Homo sapiens, UniProt P03372, G521R/L384M/M421G).
A short description of data set [4]: Clearance in rat at 3 mg/kg, iv. It counts as ADME, organism-based. Also on record: dose 3 mg/kg, route intravenous. To be noted: in vivo.
Data set [5] in a line: Terminal half life in rat at 3 mg/kg, iv. It counts as ADME, organism-based. Also noted: dose 3 mg/kg, route intravenous. To be noted: in vivo, read-out: beta t1/2 (converted).
The target in data set [6] is T1, Estrogen receptor beta. The experiment in a line: Binding affinity to human ER beta upto 10 uM.
Data set [7] in a line: Cmax in BALB/c mouse at 4 mg/kg, ip. It counts as ADME, organism-based. Also noted: dose 4 mg/kg, route intraperitoneal. Particulars: in vivo.
Data set [8] addresses T3, Estrogen receptor (Homo sapiens) (UniProt P03372).
T3 sequence (whole entry): T2 sequence (P03372 whole entry)
It counts as functional, cell-based. Particulars: HeLa.

In data set [9] the target is T2, Estrogen receptor. The experiment in a line: Binding affinity to wild type ERalpha.

Activity calls are given as the source filed them. The rule behind the calls is not given here.

Sequence of Estrogen receptor (Homo sapiens, UniProt P03372, G521R/L384M/M421G) (P03372 whole entry L384M/M421G/G521R): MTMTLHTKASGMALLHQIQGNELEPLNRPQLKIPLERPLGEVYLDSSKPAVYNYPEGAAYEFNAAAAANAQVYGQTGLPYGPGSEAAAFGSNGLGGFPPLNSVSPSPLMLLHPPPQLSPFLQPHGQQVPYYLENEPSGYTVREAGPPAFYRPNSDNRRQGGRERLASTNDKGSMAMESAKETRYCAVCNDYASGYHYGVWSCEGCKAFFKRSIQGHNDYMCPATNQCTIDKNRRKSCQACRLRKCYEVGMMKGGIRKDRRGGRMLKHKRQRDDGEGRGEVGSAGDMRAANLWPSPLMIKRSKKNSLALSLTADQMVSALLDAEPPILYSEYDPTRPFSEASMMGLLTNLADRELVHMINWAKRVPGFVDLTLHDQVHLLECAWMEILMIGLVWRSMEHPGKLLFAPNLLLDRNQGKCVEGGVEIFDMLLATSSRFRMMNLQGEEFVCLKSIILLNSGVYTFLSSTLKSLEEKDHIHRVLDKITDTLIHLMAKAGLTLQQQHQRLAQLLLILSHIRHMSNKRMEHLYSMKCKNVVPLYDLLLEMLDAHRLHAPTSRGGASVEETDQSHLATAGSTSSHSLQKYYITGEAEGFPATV
T1 sequence (Q92731 whole entry): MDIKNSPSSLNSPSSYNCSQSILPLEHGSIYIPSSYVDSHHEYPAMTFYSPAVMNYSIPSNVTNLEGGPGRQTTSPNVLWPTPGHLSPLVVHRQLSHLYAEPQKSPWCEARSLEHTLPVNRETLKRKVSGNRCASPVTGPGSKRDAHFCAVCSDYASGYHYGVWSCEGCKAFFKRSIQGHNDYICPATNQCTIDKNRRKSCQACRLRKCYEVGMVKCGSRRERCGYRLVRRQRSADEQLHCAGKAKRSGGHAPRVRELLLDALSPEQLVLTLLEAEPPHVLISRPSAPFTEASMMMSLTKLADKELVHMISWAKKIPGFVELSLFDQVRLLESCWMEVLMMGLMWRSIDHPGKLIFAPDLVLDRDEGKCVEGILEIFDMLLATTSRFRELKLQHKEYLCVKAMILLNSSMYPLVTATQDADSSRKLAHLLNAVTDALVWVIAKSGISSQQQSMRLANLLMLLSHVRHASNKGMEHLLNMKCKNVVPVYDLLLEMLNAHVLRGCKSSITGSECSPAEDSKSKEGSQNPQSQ

Turning to `O=C1CCC2(Cc3ccccc3)Cc3cc(O)ccc3C2=C1c1ccc(O)cc1` (configuration not stated), the IC50 (usually the concentration at which inhibition is half-maximal) in data set [1] stood at 100 nM; in data set [2] it was 220 nM. In addition, the EC50 (commonly the concentration at which the effect is half-maximal) in data set [3] amounted to 11 nM. Besides, in data set [4], the clearance (commonly the volume of plasma or blood freed of the substance per unit of time) was found to be 39 mL/min/kg. For the same molecule, the half-life in data set [5] is 1.5 h.

With `CC1=C2c3ccc4[nH]ncc4c3CC2(Cc2cccc(F)c2)CCC1=O` (configuration not stated), the IC50 in data set [1] was 1600 nM; in [2], above 10000 nM.

As for `CC1=C2c3ccc4[nH]nnc4c3CC2(Cc2ccc(F)cc2)CCC1=O` (configuration not stated), in data set [6], the result was inactive.

Consider `O=C1CCC2(Cc3ccc(Cl)cc3)Cc3cc(O)ccc3C2=C1c1ccc(OCCN2CCCCC2)cc1` (configuration not stated), for which the concentration in data set [7] peaked (Cmax) at 500 nM. The IC50 in data set [1] was 2200 nM; in data set [2], 1100 nM. A half-maximal response in [3] (EC50) required 41 nM.

With `CC1=C2c3ccc4[nH]ncc4c3CC2(Cc2ccccc2)CCC1=O` (configuration not stated), the results for the IC50 in data set [1] and in [2] were 1200 nM and above 10000 nM, respectively. Further, the outcome in data set [8] was inactive.

Turning to `O=C1CCC2(Cc3ccccc3)Cc3cc(O)ccc3C2=C1c1ccc(OCCN2CCCCC2)cc1` (configuration not stated), the IC50 in [1] amounted to 180 nM; in data set [2] it was 380 nM. In [3], this molecule had an EC50 of 14 nM. In data set [4], the clearance is 22 mL/min/kg. Besides, the half-life in [5] is 2 h.

With `O=C1CCC2(Cc3ccccc3)Cc3c(ccc4[nH]ncc34)C2=C1c1ccc(OCCN2CCCCC2)cc1` (configuration not stated), the figures for the half-inhibitory concentration (IC50) in [1] and in data set [2] were 130 nM and 620 nM, respectively. Further, the half-maximal effective concentration (EC50) in data set [3] was found to be 300 nM.

`CN(C)CCOc1ccc(C2=C3c4ccc(O)cc4CC3(Cc3ccccc3)CCC2=O)cc1` (configuration not stated): the IC50 was 560 nM in data set [1] and 1200 nM in data set [2].

On to `CC1=C2c3ccc4nn[nH]c4c3CC2(Cc2ccc(F)cc2)CCC1=O` (configuration not stated), for which, in data set [1], the IC50 was above 10000 nM.

For the molecule `CC1=C2c3ccc(O)cc3CC2(Cc2ccccc2)CCC1=O` (configuration not stated), the IC50 in data set [2] is 1500 nM.

`CC1=C2c3ccc4[nH]ncc4c3CC2(Cc2ccc(F)cc2)CCC1=O` (configuration not stated) displayed a half-maximal inhibitory concentration (IC50) in [1] above 1000 nM.

Consider `CC1=C2c3ccc(O)cc3CC2(Cc2ccc(Cl)cc2)CCC1=O` (configuration not stated), for which, in data set [9], the IC50 came out at 6800 nM. In other words, the single-digit micromolar range.

For `CC1=C2c3ccc4[nH]ncc4c3CC2(Cc2ccccc2F)CCC1=O` (configuration not stated), the results for the IC50 in [1] and in data set [2] were 560 nM and 3400 nM, respectively.

As for `O=C1CCC2(Cc3ccccc3)Cc3cc(O)ccc3C2=C1c1ccc(OCCN2CCOCC2)cc1` (configuration not stated), the IC50 was 230 nM in data set [1] and 710 nM in [2].

With `O=C1C=C2c3ccc4[nH]ncc4c3CC2(Cc2ccccc2)CC1` (configuration not stated), the half-inhibitory concentration (IC50) in [1] and in [2] was above 10000 nM throughout.

Consider `CC1=C2c3ccc4nn[nH]c4c3CC2(Cc2ccccc2)CCC1=O` (configuration not stated), for which the figures for the IC50 in data set [1] and in data set [2] were 5800 nM and above 10000 nM, respectively.
